Where two headings read alike, the source gives them in different places.
How the values were obtained:
[1] = multiple rodent models; cited from earlier work
[2] = tested on: hepatic stellate cells (HSC); details: cultured HSCs; cited from earlier work
[3] = in vivo; cited from earlier work
human FXR = target: T1, human FXR (Homo sapiens, UniProt Q96RI1); experiment: FXR reporter assay (cellular FXR activities); format: cell-based; details: for EC50: FXR reporter cells, 24 hours incubation, luciferase, read-out: Reporter Cell EC50; for Emax: read-out: Emax (%) (GW4064 Emax = 100%)
T1 construct: expressed in transfected cells
T1 sequence (Q96RI1 1-486): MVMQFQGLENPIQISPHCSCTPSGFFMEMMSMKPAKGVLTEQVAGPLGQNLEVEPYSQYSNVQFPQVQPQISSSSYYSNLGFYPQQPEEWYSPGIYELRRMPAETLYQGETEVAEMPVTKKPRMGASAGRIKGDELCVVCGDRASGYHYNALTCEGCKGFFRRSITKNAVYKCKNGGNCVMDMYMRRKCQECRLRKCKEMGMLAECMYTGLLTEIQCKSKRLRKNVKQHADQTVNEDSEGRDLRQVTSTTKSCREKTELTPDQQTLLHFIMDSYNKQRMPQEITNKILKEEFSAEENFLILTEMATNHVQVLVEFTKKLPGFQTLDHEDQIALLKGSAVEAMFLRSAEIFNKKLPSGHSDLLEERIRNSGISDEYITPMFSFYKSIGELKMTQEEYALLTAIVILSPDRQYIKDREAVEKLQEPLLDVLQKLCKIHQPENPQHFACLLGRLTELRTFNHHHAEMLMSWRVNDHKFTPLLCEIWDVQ
Outline: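 EC50 derived from luciferase read-out after 24 h (37 °C, 5% CO2) treatment of human-FXR-expressing reporter cells with serially diluted compound.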

Mouse pharmacokinetics = format: in vivo; design: concentration or dose not given beside the values; details: Balb/c male mice, blood samples 15 to 1140 min, LC-MS/MS
Protocol: To evaluate the pharmacokinetics test, the invented 18 compounds of examples were determined as follows. Blood samples are collected at 15, 30, 60, 120, 240, 480, 1140 min. Quantification is by using a LC-MS/MS method specific to the selected compound. Pharmacokinetics parameters are calculated using WinNonLinnon compartmental analysis software.

[4] = db/db, ob/ob and KK-A(y)mice; cited from earlier work

EC50 (human FXR) [nM] | Emax (human FXR) [%] | AUC (Mouse pharmacokinetics; mouse, read-out: AUC) [ng·h/mL] | SMILES | other results
200 to 1000 | > 100 | 760 | O=C(O)c1cccc(C#Cc2ccc(OCc3c(-c4c(Cl)cccc4Cl)noc3C3CC3)cc2C(F)(F)F)c1 [Compound I-3, 3-((4-((5-cyclopropyl-3-(2,6-dichlorophenyl)isoxazol-4-yl)methoxy)-2-(trifluromethyl)phenyl)ethynyl)benzoic acid] | 
60 to 200 | 94 | 438 | O=C(O)c1cncc(C#Cc2ccc(OCc3c(-c4c(Cl)cccc4Cl)noc3C3CC3)cc2Cl)c1 [Compound I-20, 5-((2-chloro-4-((5-cyclopropyl-3-(2,6-dichlorophenyl)isoxazol-4-yl)methoxy)phenyl)ethynyl)nicotinic acid] | 
≤ 20 | 92 | 6140 | CN(C)c1cc(C#Cc2ccc(OCc3c(-c4c(Cl)cccc4Cl)noc3C3CC3)cc2Cl)cc(C(=O)O)c1 [Compound I-21, 3-((2-chloro-4-((5-cyclopropyl-3-(2,6-dichlorophenyl)isoxazol-4-yl)methoxy)phenyl)ethynyl)-5-(dimethylamino)benzoic acid] | 
60 to 200 | 97 | 722 | Nc1cc(C#Cc2ccc(OCc3c(-c4c(Cl)cccc4Cl)noc3C3CC3)cc2Cl)cc(C(=O)O)c1 [Compound I-25, 3-amino-5-((2-chloro-4-((5-cyclopropyl-3-(2,6-dichlorophenyl)isoxazol-4-yl)methoxy)phenyl)ethynyl)benzoic acid] | 
20 to 60 | 92 | 680 | O=C(O)c1cc(F)cc(C#Cc2ccc(OCc3c(-c4c(Cl)cccc4Cl)noc3C3CC3)cc2Cl)c1 [Compound I-30, 3-((2-chloro-4-((5-cyclopropyl-3-(2,6-dichlorophenyl)isoxazol-4-yl)methoxy)phenyl)ethynyl)-5-fluorobenzoic acid] | 
60 to 200 | 92 | 1000 | O=C(O)c1ccc(F)c(C#Cc2ccc(OCc3c(-c4c(Cl)cccc4Cl)noc3C3CC3)cc2Cl)c1 [Compound I-38, 3-((2-chloro-4-((5-cyclopropyl-3-(2,6-dichlorophenyl)isoxazol-4-yl)methoxy)phenyl)ethynyl)-4-fluorobenzoic acid] | 
20 to 60 | > 100 | 3310 | CNc1cc(C#Cc2ccc(OCc3c(-c4c(Cl)cccc4Cl)noc3C3CC3)cc2Cl)cc(C(=O)O)c1 [Compound I-52, 3-((2-chloro-4-((5-cyclopropyl-3-(2,6-dichlorophenyl)isoxazol-4-yl)methoxy)phenyl)ethynyl)-5-(methylamino)benzoic acid] | 
60 to 200 | 78 | 11900 | Cc1cc(C#Cc2ccc(OCc3c(-c4c(Cl)cccc4Cl)noc3C3CC3)cc2Cl)cc(C(=O)O)c1 [Compound I-63, 3-((2-chloro-4-((5-cyclopropyl-3-(2,6-dichlorophenyl)isoxazol-4-yl)methoxy)phenyl)ethynyl)-5-methylbenzoic acid] | 
20 to 60 | 88 | 271 | O=C(O)c1cc(C#Cc2ccc(OCc3c(-c4c(Cl)cccc4Cl)noc3C3CC3)cc2Cl)c2cn[nH]c2c1 [Compound I-89, 4-((2-chloro-((5-cyclopropyl-3-(2,6-dichlorophenyl)isoxazol-4-yl)methoxy)phenyl)ethynyl)-1H-indazole-6-carboxylic acid] | 
≤ 20 | > 100 | 544 | O=C(O)c1cc(C#Cc2ccc(OCc3c(-c4c(Cl)cccc4Cl)noc3C3CC3)cc2Cl)c2cc[nH]c2c1 [Compound I-91, 4-((2-chloro-4-((5-cyclopropyl-3-(2,6-dichlorophenyl)isoxazol-4-yl)methoxy)phenyl)ethynyl)-1H-indole-6-carboxylic acid] | 
60 to 200 | 86 | 205 | O=C(O)c1cc(C#Cc2ccc(OCc3c(-c4c(Cl)cccc4Cl)noc3C3CC3)cc2Cl)cc2[nH]ncc12 [Compound I-99, 6-((2-chloro-4-((5-cyclopropyl-3-(2,6-dichlorophenyl)isoxazol-4-yl)methoxy)phenyl)ethynyl)-1H-indazole-4-carboxylic acid] | 
20 to 60 | 96 | 2250 | CC(C)c1nc2cc(C#Cc3ccc(OCc4c(-c5c(Cl)cccc5Cl)noc4C4CC4)cc3Cl)cc(C(=O)O)c2o1 [Compound I-106, 5-((2-chloro-4-((5-cyclopropyl-3-(2,6-dichlorophenyl)isoxazol-4-yl)methoxy)phenyl)ethynyl)-2-isopropylbenzo[d]oxazole-7-carboxylic acid] | 
20 to 60 | 97 |  | CC(C)c1nc2c(C(=O)O)cc(C#Cc3ccc(OCc4c(-c5c(Cl)cccc5Cl)noc4C4CC4)cc3Cl)cc2o1 [Compound I-115, 6-((2-chloro-4-((5-cyclopropyl-3-(2,6-dichlorophenyl)isoxazol-4-yl)methoxy)phenyl)ethynyl)-2-isopropylbenzo[d]oxazole-4-carboxylic acid] | 

Further lines, the compound ahead of its results:

SMILES | EC50 (human FXR) [nM] | Emax (human FXR) [%] | AUC (Mouse pharmacokinetics; mouse, read-out: AUC) [ng·h/mL] | other results
CC[C@H]1[C@@H](O)[C@@H]2[C@H](CC[C@]3(C)[C@@H]([C@H](C)CCC(=O)O)CC[C@@H]23)[C@@]2(C)CC[C@@H](O)C[C@@H]12 [Compound 6EtCDCA, 6-ethyl-chenodeoxycholic acid] |  |  |  | hepatic fibrosis [1]: promote resolution of hepatic fibrosis; expression of fibrotic markers such as α-smooth muscle actin and α1(I) collagen [2]: decreased expression of fibrotic markers; impairment of bile flow [3]: fully reverse the impairment of bile flow; liver cell injury caused by the cytotoxic lithocholic acid [3]: protect the hepatocytes against liver cell injury
O=C(O)c1cccc(C#Cc2ccc(OCc3c(-c4c(Cl)cccc4Cl)noc3C3CC3)cc2)c1 [Compound I-2, 3-((4-((5-cyclopropyl-3-(2,6-dichlorophenyl)isoxazol-4-yl)methoxy)phenyl)ethynyl)benzoic acid] | > 1000 | > 100 | 277 | 
O=C(O)c1cccc(C#Cc2ccc(OCc3c(-c4c(Cl)cccc4Cl)noc3C3CC3)cc2Cl)c1 [Compound I-15, 3-((2-chloro-4-((5-cyclopropyl-3-(2,6-dichlorophenyl)isoxazol-4-yl)methoxy)phenyl)ethynyl)benzoic acid] | 60 to 200 | 82 | 521 | 
O=C(O)c1ccc(C#Cc2ccc(OCc3c(-c4c(Cl)cccc4Cl)noc3C3CC3)cc2Cl)cc1 [Compound I-16, 4-((2-chloro-4-((5-cyclopropyl-3-(2,6-dichlorophenyl)isoxazol-4-yl)methoxy)phenyl)ethynyl)benzoic acid] | 60 to 200 | 91 | 2250 | 
O=C(O)c1ccc(Cl)c(C#Cc2ccc(OCc3c(-c4c(Cl)cccc4Cl)noc3C3CC3)cc2Cl)c1 [Compound I-28, 4-chloro-3-((2-chloro-4-((5-cyclopropyl-3-(2,6-dichlorophenyl)isoxazol-4-yl)methoxy)phenyl)ethynyl)benzoic acid] | 60 to 200 | 91 | 1780 | 
CC(C)Nc1cc(C#Cc2ccc(OCc3c(-c4c(Cl)cccc4Cl)noc3C3CC3)cc2Cl)cc(C(=O)O)c1 [Compound I-54, 3-((2-chloro-4-((5-cyclopropyl-3-(2,6-dichlorophenyl)isoxazol-4-yl)methoxy)phenyl)ethynyl)-5-(isopropylamino)benzoic acid] | ≤ 20 | > 100 | 934 | 
CC(C)(C)OC(=O)Nc1cc(C#Cc2ccc(OCc3c(-c4c(Cl)cccc4Cl)noc3C3CC3)cc2Cl)cc(C(=O)O)c1 [Compound I-77, 3-((tert-butoxycarbonyl)amino)-5-((2-chloro-4-((5-cyclopropyl-3-(2,6-dichlorophenyl)isoxazol-4-yl)methoxy)phenyl)ethynyl)benzoic acid] | ≤ 20 | 100 | 1010 | 
CC(C)c1onc(-c2c(Cl)cccc2Cl)c1COc1ccc(/C=C/c2cccc(C(=O)O)c2)c(Cl)c1 [WO2000037077 GW4064] |  |  |  | insulin sensitivity [4]: improved insulin sensitivity; plasma glucose levels [4]: reduced plasma glucose levels; AUC (Mouse pharmacokinetics): 253.31 ng·h/mL

— patent publication US10988449B2, “Isoxazole derivatives as nuclear receptor agonists and uses thereof” (IL DONG PHARMACEUTICAL CO., LTD., priority 2017, dated 2021)
